The assay has as its target SARS-CoV-2 NSP3 macrodomain (Mac1), P43 crystal form (Severe acute respiratory syndrome coronavirus 2, UniProt P0DTD1). The format is binding. The conditions noted are these: for 1-BDC: PanDDA background density correction; for Total number of conformations: ligand conformations modeled in Mac1 crystal structure; for 2*(1-BDC) (%): occupancy estimate from PanDDA 1-BDC; for X-ray crystallography: Binding site: site where the ligand is bound in the X-ray crystal structure.

The mark [1] stands for this setting: X-ray crystal structure determined (TRUE).
Where [2] appears, read: crystal soak 10 mM, P43 crystals.
[3] abbreviates: site of ligand in X-ray crystal structure.
Setting [4] is: TRUE = crystal structure with ligand determined.
Where [5] appears, read: crystal soak concentration 20 mM.
Where [6] appears, read: crystal soak concentration 20 mM, event 1.
[7] abbreviates: crystal soak concentration 20 mM, P43 crystals.
[8] abbreviates: crystal soak, soak concentration 10 mM.
[9] abbreviates: site of Mac1 where ligand bound in crystal structure.
[10] abbreviates: crystal soak, soak concentration 10 mM, TRUE = ligand hit.
Setting [11] is: crystal soak concentration 3 mM, P43 crystals.
[12] abbreviates: crystal soak concentration 3 mM.
Where [13] appears, read: crystal soak concentration 10 mM, P43 crystals.
Where [14] appears, read: crystal soak concentration 10 mM.

Molecules are shown by their SMILES. Where two headings read alike, the source gives them in different places.

Consider `OCC(CC1CCCC1)Nc1ncnc2[nH]ccc12` (centres unmarked) [AVI-3691], for which the 1-BDC is on record as 0.18, the “Total number of conformations” value amounted to 1 and the “2*(1-BDC) (%)” value is 36%. Under setting [1], the X-ray crystal structure result is recorded as “TRUE”. Moreover, under setting [2], the “Pandda run, overall: Hit” value was “TRUE” and the “Pandda run, overall: Modeled” value was “TRUE”. For the setting “crystal soak 10 mM”, the “PanDDA run, DMSO background map: 1-BDC” value stood at 0.18 and the “PanDDA run, DMSO background map: Hit” value is on record as “TRUE”. The Binding site entry under setting [3] is reported as “Adenosine”.

For `O=C(O)C1CCCN1S(=O)(=O)c1cccc2nsnc12` (centres unmarked) [AVI-2], the 1-BDC came to 0.2, the “Total number of conformations” value was found to be 1 and the “2*(1-BDC) (%)” value is listed as 40%. Moreover, the X-ray crystal structure result under setting [4] is “TRUE”. Under setting [5], the “PanDDA run, DMSO background map: Hit” value was “TRUE”. Moreover, the “PanDDA run, DMSO background map: 1-BDC” value under setting [6] is given as 0.22. Further, under setting [7], the “Pandda run, overall: Hit” value is “TRUE” and the “Pandda run, overall: Modeling comment” value is “Duplicate, not modeled”. Under setting [8], the “Pandda run, overall: Modeling comment” value is “DMSO”; the “PanDDA run, DMSO background map: Hit” value is “TRUE”; the “PanDDA run, DMSO background map: Modeled” value is “TRUE”. Where the note is “crystal soak, soak concentration 10 mM, P43 crystals, TRUE = ligand-binding event identified”, the “Pandda run, overall: Hit” value was “TRUE”. Where the note is “crystal soak, soak concentration 10 mM, event 1”, the “PanDDA run, DMSO background map: 1-BDC” value is 0.2. Also, the “Pandda run, overall: Modeled” value (crystal soak, soak concentration 10 mM, TRUE = ligand modeled) is given as “TRUE”. Under setting [9], the Binding site result was “Adenosine”.

With `CCC(Nc1ncnc2[nH]ccc12)C(C)O` (centres unmarked) [AVI-3635], the 1-BDC is listed as 0.14, the “Total number of conformations” value stood at 2 and the “2*(1-BDC) (%)” value was 28%. Moreover, the X-ray crystal structure result under setting [1] was “TRUE”. Moreover, under setting [2], the “Pandda run, overall: Hit” value is “TRUE” and the “Pandda run, overall: Modeled” value was “TRUE”. Moreover, under “crystal soak 10 mM”, the “PanDDA run, DMSO background map: 1-BDC” value is reported as 0.14 and the “PanDDA run, DMSO background map: Hit” value was “TRUE”. Moreover, the “Pandda run, overall: Hit” value under setting [10] is “TRUE”. Further, the Binding site result under setting [3] is “Adenosine”. Besides, where the note is “soak concentration 10 mM”, the “PanDDA run, DMSO background map: 1-BDC” value turned out to be 0.23 and the “PanDDA run, DMSO background map: Hit” value is listed as “TRUE”.

As for `O=C(O)C(F)(F)F.OC[C@@H](CCc1ccccc1)Nc1ncnc2[nH]ccc12` [AVI-3654], under setting [2], the “Pandda run, overall: Hit” value is given as “TRUE” and the “Pandda run, overall: Modeling comment” value is recorded as “Weak density for phenyl, not modeled”. For the setting “crystal soak 10 mM”, the “PanDDA run, DMSO background map: 1-BDC” value came to 0.14; the “PanDDA run, DMSO background map: Hit” value is recorded as “TRUE”; the “PanDDA run, TFA/DMSO background map: 1-BDC” value stood at 0.07; the “PanDDA run, TFA/DMSO background map: Hit” value is listed as “TRUE”.

For the compound `C[C@@H](O)[C@H](CO)Nc1ncnc2[nH]ccc12.O=C(O)C(F)(F)F` [AVI-3730], the 1-BDC amounted to 0.14, the “Total number of conformations” value was 1 and the “2*(1-BDC) (%)” value is recorded as 28%. Further, the X-ray crystal structure result under setting [1] is given as “TRUE”. The “Pandda run, overall: Modeled” value under setting [8] was “TRUE”. The “Pandda run, overall: Hit” value under setting [10] is reported as “TRUE”. For the same compound, the Binding site entry under setting [3] is given as “Adenosine”. Moreover, where the note is “soak concentration 10 mM”, the “PanDDA run, DMSO background map: 1-BDC” value amounted to 0.14 and the “PanDDA run, DMSO background map: Hit” value is recorded as “TRUE”.

In the case of `OC1CCCN(c2ncnc3[nH]ccc23)C1` (centres unmarked) [AVI-3646], the 1-BDC is listed as 0.22, the “Total number of conformations” value is reported as 1 and the “2*(1-BDC) (%)” value is listed as 44%. Besides, under setting [2], the “Pandda run, overall: Hit” value is “TRUE” and the “Pandda run, overall: Modeled” value is “TRUE”. Further, under “crystal soak 10 mM”, the “PanDDA run, DMSO background map: 1-BDC” value is 0.22 and the “PanDDA run, DMSO background map: Hit” value is recorded as “TRUE”. Moreover, the X-ray crystal structure result (crystal structure with Mac1 determined (TRUE)) is “TRUE”. The Binding site result (site of ligand in Mac1 crystal structure) is “Adenosine”.

With `OCC(Cc1ccc(I)cc1)Nc1ncnc2[nH]ccc12` (centres unmarked) [AVI-3686], the 1-BDC was 0.2, the “Total number of conformations” value turned out to be 2 and the “2*(1-BDC) (%)” value is listed as 40%. The X-ray crystal structure entry under setting [1] was “TRUE”. Further, under setting [2], the “Pandda run, overall: Hit” value is given as “TRUE” and the “Pandda run, overall: Modeled” value is “TRUE”. Besides, under “crystal soak 10 mM”, the “PanDDA run, DMSO background map: 1-BDC” value turned out to be 0.2 and the “PanDDA run, DMSO background map: Hit” value is “TRUE”. Further, the Binding site entry under setting [3] is given as “Adenosine”.

Turning to `Cc1c(C)n(Cc2ccccc2)c2ncnc(N)c12` [AVI-321], the 1-BDC came to 0.08, the “Total number of conformations” value amounted to 1 and the “2*(1-BDC) (%)” value is on record as 16%. Besides, the “PanDDA run, DMSO background map: 1-BDC” value (event 1) was determined as 0.15. Further, the X-ray crystal structure result under setting [4] is “TRUE”. Moreover, under setting [11], the “Pandda run, overall: Hit” value is recorded as “TRUE” and the “Pandda run, overall: Modeled” value was “TRUE”. Moreover, under setting [12], the “PanDDA run, DMSO background map: Hit” value is “TRUE” and the “PanDDA run, DMSO background map: Modeled” value was “TRUE”. Further, the “PanDDA run, DMSO background map: 1-BDC” value (crystal soak concentration 3 mM, event 1) came to 0.08. Moreover, the Binding site entry under setting [9] is given as “Adenosine”.

On to `OCC(Cc1ccoc1)Nc1ncnc2[nH]ccc12` (centres unmarked) [AVI-3705], for which the 1-BDC was 0.21, the “Total number of conformations” value turned out to be 1 and the “2*(1-BDC) (%)” value is recorded as 42%. In addition, under setting [1], the X-ray crystal structure result is listed as “TRUE”. The “Pandda run, overall: Modeled” value under setting [8] is on record as “TRUE”. Also, under setting [10], the “Pandda run, overall: Hit” value was “TRUE”. Also, under setting [3], the Binding site entry is listed as “Adenosine”. Further, under “soak concentration 10 mM”, the “PanDDA run, DMSO background map: 1-BDC” value is 0.21 and the “PanDDA run, DMSO background map: Hit” value was “TRUE”.

For the compound `O=C(O)C(F)(F)F.OCC12CC(CN1c1ncnc3[nH]ccc13)C2` [AVI-3681], the 1-BDC was determined as 0.22, the “Total number of conformations” value amounted to 1, the “2*(1-BDC) (%)” value was 44% and the “X-ray crystallography: Binding site” value is “Adenosine”. Further, under setting [2], the “Pandda run, overall: Hit” value is “TRUE”; the “Pandda run, overall: Modeled” value was “TRUE”; the “Pandda run, overall: Modeling comment” value is on record as “Distal site, weak density, not modeled”. In addition, for the setting “crystal soak 10 mM”, the “PanDDA run, DMSO background map: 1-BDC” value came to 0.22 and the “PanDDA run, DMSO background map: Hit” value is given as “TRUE”.

`CC(C)CCC(CO)Nc1ncnc2[nH]ccc12.O=C(O)C(F)(F)F` (centres unmarked) [AVI-3668]: under setting [2], the “Pandda run, overall: Hit” value is given as “TRUE” and the “Pandda run, overall: Modeling comment” value is recorded as “Weak density, not modeled”. Further, where the note is “crystal soak 10 mM”, the “PanDDA run, DMSO background map: 1-BDC” value came out at 0.15; the “PanDDA run, DMSO background map: Hit” value is listed as “TRUE”; the “PanDDA run, TFA/DMSO background map: 1-BDC” value is 0.09; the “PanDDA run, TFA/DMSO background map: Hit” value is “TRUE”.

On to `OCC(CC1CCC1)Nc1ncnc2[nH]ccc12` (centres unmarked) [AVI-3641], for which the 1-BDC was found to be 0.18, the “Total number of conformations” value is 1 and the “2*(1-BDC) (%)” value is reported as 36%. In addition, under setting [1], the X-ray crystal structure result is listed as “TRUE”. For the same compound, under setting [2], the “Pandda run, overall: Hit” value is listed as “TRUE” and the “Pandda run, overall: Modeled” value is given as “TRUE”. Further, for the setting “crystal soak 10 mM”, the “PanDDA run, DMSO background map: 1-BDC” value is given as 0.18 and the “PanDDA run, DMSO background map: Hit” value is given as “TRUE”. For the same compound, under setting [3], the Binding site result is on record as “Adenosine”.

As to `OCC(Cc1c[nH]c2ccccc12)Nc1ncnc2[nH]ccc12` (centres unmarked) [AVI-3650], the 1-BDC stood at 0.15, the “Total number of conformations” value is on record as 2 and the “2*(1-BDC) (%)” value is on record as 30%. For the same compound, the X-ray crystal structure entry under setting [1] is given as “TRUE”. In addition, under setting [2], the “Pandda run, overall: Hit” value is recorded as “TRUE” and the “Pandda run, overall: Modeled” value is given as “TRUE”. Where the note is “crystal soak 10 mM”, the “PanDDA run, DMSO background map: 1-BDC” value came out at 0.15 and the “PanDDA run, DMSO background map: Hit” value was “TRUE”. The Binding site entry under setting [3] is “Adenosine”.

Turning to `CO[C@@H]1C[C@H](CO)N(c2ncnc3[nH]ccc23)C1` [AVI-3656], the 1-BDC stood at 0.26, the “Total number of conformations” value stood at 1, the “2*(1-BDC) (%)” value is listed as 52% and the “X-ray crystallography: Binding site” value is given as “Adenosine”. Also, under setting [2], the “Pandda run, overall: Hit” value is on record as “TRUE” and the “Pandda run, overall: Modeled” value is “TRUE”. In addition, where the note is “crystal soak 10 mM”, the “PanDDA run, DMSO background map: 1-BDC” value came out at 0.26 and the “PanDDA run, DMSO background map: Hit” value was “TRUE”.

On to `OC(c1ccccc1)C1CCCN1c1ncnc2[nH]ccc12` (centres unmarked) [AVI-3652], for which the 1-BDC worked out at 0.22, the “Total number of conformations” value is listed as 1, the “2*(1-BDC) (%)” value is given as 44% and the “X-ray crystallography: Binding site” value is given as “Adenosine”. Moreover, under setting [2], the “Pandda run, overall: Hit” value was “TRUE” and the “Pandda run, overall: Modeled” value was “TRUE”. Further, under “crystal soak 10 mM”, the “PanDDA run, DMSO background map: 1-BDC” value turned out to be 0.22 and the “PanDDA run, DMSO background map: Hit” value was “TRUE”.

On to `CC1CCN(C(=O)c2ccc3c(c2)nc(CO)n3C)CC1C(=O)O` (centres unmarked) [AVI-348], for which the 1-BDC came out at 0.25, the “Total number of conformations” value was 1 and the “2*(1-BDC) (%)” value is 50%. Also, the X-ray crystal structure result under setting [4] is “TRUE”. For the setting “crystal soak concentration 10 mM, event 1”, the “PanDDA run, DMSO background map: 1-BDC” value amounted to 0.25. Besides, under setting [13], the “Pandda run, overall: Hit” value was “TRUE” and the “Pandda run, overall: Modeled” value is given as “TRUE”. Moreover, under setting [14], the “PanDDA run, DMSO background map: Hit” value was “TRUE” and the “PanDDA run, DMSO background map: Modeled” value is reported as “TRUE”. Besides, the “PanDDA run, DMSO background map: Hit” value under setting [5] is reported as “TRUE”. In addition, the “PanDDA run, DMSO background map: 1-BDC” value under setting [6] came out at 0.34. For the same compound, under setting [7], the “Pandda run, overall: Hit” value is given as “TRUE” and the “Pandda run, overall: Modeling comment” value was “Duplicate, not modeled”. Besides, the Binding site entry under setting [9] is reported as “Adenosine”.
